Measured values reported in patent US10716797B2, “Steroid alkaloids and compositions and kits thereof” (priority 2013, dated 2020).

Legend:
MRSA USA100 = experiment: MIC by microdilution, alone or in combination, MRSA USA100; assay type: cell-based, Staphylococcus aureus; details: Staphylococcus aureus, agent used alone, read-out: MIC
Description: (§1) Method. The minimal inhibitory concentrations (MICs), (i.e. lowest concentration of an antimicrobial that will inhibit the visible growth of a microorganism after incubation), of test compounds were determined against the normal or SCV strains of bacterial species from the Firmicutes phylum. Briefly, MICs were determined using the microdilution method in 96-well plates (Clinical and Laboratory Standards Institute (CLSI), 2011). Bacteria were inoculated at ˜10^5-10^6 CFU/mL and incubated at 35° C. for 20 h (normal strains) or 48 h (SCVs) in brain heart infusion (BHI) broth in order to allow SCVs to reach maximal growth as previously described (Mitchell et al., 2012). Then OD595 nm was read on a microplate reader. […] In this example the range of compound concentrations tested was 0.03 to 64 μg/ml using doubling increments. Strain Staphylococcus aureus NewbouldΔhemB (hemB) was also used in the experiments and is a laboratory-derived stable SCV created by the insertion of the macrolide resistance gene ermA in the hemB gene of this strain to create the SCV phenotype (defective electron transport chain and respiratory deficiency) through inactivation of hemin biosynthesis (Brouillette et al., 2004).
(§2) In the present Example the range of compound concentrations tested, using doubling increments, was 0.03 to 64 μg/ml for Compound 14 and up to 1024 μg/ml for gentamicin (GEN), kanamycin (KAN) and cefalexin (CEF) when these compounds were used alone. Compound 14 (Cpd 14) was used at a fixed concentration of 4 μg/ml when added to other antibiotics. The combination of CEF and KAN was used in a 3:2 ratio and doubling increments were used to test the antibacterial activity against MRSA in the absence or presence of Compound 14.

MRSA USA300 = experiment: MIC by microdilution, alone or in combination, MRSA USA300; assay type: cell-based, Staphylococcus aureus; details: Staphylococcus aureus, agent used alone, read-out: MIC
Description: as §1, §2

[1] = system: methicillin-resistant Staphylococcus aureus (MRSA) strains; experiment: MIC against MRSA strains; assay type: cell-based; details: Staphylococcus aureus, MRSA, used alone; tested MRSA strains (kanamycin: two of the strains)
Description: as §1, §2

MRSA COL = experiment: MIC by microdilution, alone or in combination, MRSA COL; assay type: cell-based, Staphylococcus aureus; details: Staphylococcus aureus, agent used alone, read-out: MIC
Description: as §1, §2

Measured: MIC

CC1=C(C(=O)O)N2C(=O)[C@@H](NC(=O)[C@H](N)c3ccccc3)[C@H]2SC1 [Cefalexin, cefalexin]
256 mg/L: all assays above
